Like-named read-outs stand apart in the source and are kept apart here. Peptide text beside a SMILES is read from it. * marks the point of attachment. MeOSuc = COC(=O)CCC(=O)*; CH2Cl = ClC*
Legend:
Purified PMPMEase = molecular target: T1, Purified PMPMEase (Sus scrofa, UniProt Q29550); format: biochemical, porcine
T1 construct: from tissue; host or cells: porcine liver supernatant, purified by column chromatography
T1 sequence (Q29550 19-566): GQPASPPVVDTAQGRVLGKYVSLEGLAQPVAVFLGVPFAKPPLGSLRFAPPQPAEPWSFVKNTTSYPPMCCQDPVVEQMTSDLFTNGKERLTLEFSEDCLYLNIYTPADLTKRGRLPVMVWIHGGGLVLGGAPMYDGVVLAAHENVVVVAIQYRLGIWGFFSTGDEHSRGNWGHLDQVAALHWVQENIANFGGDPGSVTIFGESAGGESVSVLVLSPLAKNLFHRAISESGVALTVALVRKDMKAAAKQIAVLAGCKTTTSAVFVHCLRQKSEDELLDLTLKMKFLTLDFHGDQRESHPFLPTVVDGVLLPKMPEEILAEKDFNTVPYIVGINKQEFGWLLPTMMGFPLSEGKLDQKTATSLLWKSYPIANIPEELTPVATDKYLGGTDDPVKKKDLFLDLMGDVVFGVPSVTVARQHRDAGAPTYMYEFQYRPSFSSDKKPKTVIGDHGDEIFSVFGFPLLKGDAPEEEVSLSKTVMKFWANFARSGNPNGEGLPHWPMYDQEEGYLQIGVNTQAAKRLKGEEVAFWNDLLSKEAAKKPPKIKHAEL

brain PMPMEase = format: biochemical, porcine
liver PMPMEase = format: biochemical, porcine
porcine liver PMPMEase = molecular target: T2, porcine liver PMPMEase (Sus scrofa, UniProt Q29550); assay: PMPMEase inhibition assay of PMSF, GESF and FESF (IC50); format: biochemical; details: for increase in potency relative to PMSF: ratio of IC50 values vs PMSF
T2 construct: the supernatant fraction was prepared from 100 g of porcine liver; from tissue; host or cells: porcine liver 40,000×g supernatant
T2 sequence (Q29550 19-566): T1 sequence (Q29550 19-566)

[1] = Aqueous solubility (statement); format: physicochemical
[2] = 0.01 mM compound, 20 min preincubation at 37° C., HCFCM 1 mM
[3] = 1 mM compound, 20 min preincubation at 37° C., HCFCM 1 mM

## Cc1ccc(S(=O)(=O)N[C@@H](CCCCN)C(=O)CCl)cc1 [Nα-tosyl-L-Lys CMK]
Purified PMPMEase
  Residual activity (% of Control, SEM, n = 3) 0.01 mM: 98.3 ± 1.9 % of Control
  Residual activity (% of Control, SEM, n = 3) 1 mM: 98.6 ± 7.3 % of Control

## CCC(C)C(O)C(C)C(=O)C(C)/C=C(\C)CC(C)C1OC(=O)C1C (centres unmarked) [Ebelactone A]
Purified PMPMEase
  Residual activity (% of Control, SEM, n = 3) 0.01 mM: 123 ± 7 % of Control
  Residual activity (% of Control, SEM, n = 3) 1 mM: 18.3 ± 0.3 % of Control

## O=C(N[C@@H](Cc1ccccc1)C(=O)CCl)OCc1ccccc1 [N-carbobenzyloxy-L- Phe CMK]
Purified PMPMEase
  Residual activity (% of Control, SEM, n = 3) 0.01 mM: 94.8 ± 1.3 % of Control
  Residual activity (% of Control, SEM, n = 3) 1 mM: 57.0 ± 2.0 % of Control

## CC(C)CC(N)C(=O)CCl [L-Leu chloromethyl ketone (CMK)]
Purified PMPMEase
  Residual activity (% of Control, SEM, n = 3) 0.01 mM: 93.3 ± 1.0 % of Control
  Residual activity (% of Control, SEM, n = 3) 1 mM: 60.4 ± 1.9 % of Control

## CCOP(=O)(OCC)Oc1ccc([N+](=O)[O-])cc1 [Paraoxon]
Brain PMPMEase
  Brain Mean (mean percent inhibition relative to the controls): 87%
Liver PMPMEase
  Liver Mean (mean percent inhibition relative to the controls): 100%
Purified PMPMEase; [2]
  Residual activity (% of Control, SEM, n = 3) 0.01 mM: 0 ± 0 % of Control
Purified PMPMEase; [3]
  Residual activity (% of Control, SEM, n = 3) 1 mM: 0 ± 0 % of Control

## O=C(C(=O)c1ccccc1)c1ccccc1 [Benzil]
Purified PMPMEase
  Residual activity (% of Control, SEM, n = 3) 0.1 mM: *69.4 ± 0.24 % of Control
  Residual activity (% of Control, SEM, n = 3) 1 mM: 38.0 ± .43 % of Control

## O=S(=O)(F)Cc1ccccc1 [Phenylmethylsulfonyl fluoride, phenylmethylsulfonyl fluoride]
Purified PMPMEase; [2]
  Residual activity (% of Control, SEM, n = 3) 0.01 mM: 79.5 ± 1.8 % of Control
Purified PMPMEase; [3]
  Residual activity (% of Control, SEM, n = 3) 1 mM: 0 ± 0 % of Control

## CCC(C)C(O)C(C)C(=O)C(C)/C=C(\C)CC(C)C1OC(=O)C1CC (centres unmarked) [Ebelactone B]
Purified PMPMEase
  Residual activity (% of Control, SEM, n = 3) 0.01 mM: 56.4 ± 1.0 % of Control
  Residual activity (% of Control, SEM, n = 3) 1 mM: 0 ± 0 % of Control

## CC(C)=CCC/C(C)=C/CSCCS(=O)(=O)F [GESF, S-trans-geranyl-2-thioethanesulfonyl fluoride]
Porcine liver PMPMEase
  IC50: 169 ± 6.8 nM
  increase in potency relative to PMSF: over 97 fold
[1]
  aqueous solubility: not aqueous-soluble

## CC(C)=CCC/C(C)=C/CC/C(C)=C/CSCCS(=O)(=O)F [FESF, S-trans,trans-farnesyl-2-thioethanesulfonyl fluoride]
Porcine liver PMPMEase
  IC50: 37 ± 0.42 nM
  increase in potency relative to PMSF: > 440 fold
[1]
  aqueous solubility: not aqueous-soluble

## COC(=O)CCC(=O)N[C@@H](C)C(=O)N[C@@H](C)C(=O)N1CCC[C@H]1C(=O)N[C@H](C(=O)CCl)C(C)C [N- (methoxysuccinyl)-L- Ala-L-Ala-L-Pro-L- Val CMK] (MeOSuc-AAPV-CH2Cl)
Purified PMPMEase; [2]
  Residual activity (% of Control, SEM, n = 3) 0.01 mM: 105 ± 3.1 % of Control
Purified PMPMEase; [3]
  Residual activity (% of Control, SEM, n = 3) 1 mM: 61.8 ± 2.0 % of Control

## CC(C)=CCC/C(C)=C/CC/C(C)=C/CC/C(C)=C/CS(=O)(=O)F [GGESF, S-geranylgeranyl sulfonyl fluoride]
Porcine liver PMPMEase; predicted vs FESF
  higher potency than FESF (concluded from the data, not tested): 2 fold

## NC(=O)OCc1ccccc1 [Benzyl carbamate]
Purified PMPMEase
  Residual activity (% of Control, SEM, n = 3) 0.01 mM: 117 ± 11 % of Control
  Residual activity (% of Control, SEM, n = 3) 1 mM: 124 ± 5 % of Control
